Series [1] concerns the target T1, p300 (H3 peptide) (Homo sapiens, UniProt Q09472).
T1 construct: purchased Upstate Biotechnology
Briefly: Radiometric enzyme activity assay, p300 (H3 peptide). Format: biochemical. Particulars: 5 μg/ml NR-818, 10 μM ATP. As to the method:
(§1) GSK-3 were assayed for their ability to phosphorylate the appropriate peptide/protein substrate in the presence of 5 μg/ml NR-818 and 10 μM ATP. Using the direct radiometric approach, kinase activities were determined and expressed as % activity compared to the untreated control (Upstate Biotechnology, Lake Placid, N.Y.). Activities are given as the mean of duplicate determinations relative to control incubations in which the inhibitor was substituted with DMSO. In the following table 1 providing results for NR818, the following abbreviations are used: • CDK, cyclin-dependent kinase; • CK, casein kinase; • eEF-2K, eukaryotic elongation factor-2 kinase; • JNK, c-Jun N-terminal kinase; • MAPK, mitogen-activated protein kinase; • PKC, protein kinase C; and • PI 3-kinase, phosphatidylinositol 3-kinase.

Series [2] addresses T2, p300 (H4 peptide) (Homo sapiens, UniProt Q09472).
T2 construct: purchased Upstate Biotechnology
The series can be described thus: Radiometric enzyme activity assay, p300 (H4 peptide). Format: biochemical. As to conditions: 5 μg/ml NR-818, 10 μM ATP. As to the method: as §1

The target of series [3] is T3, P/CAF (H3 peptide) (Homo sapiens, UniProt Q92831).
T3 construct: purchased Upstate Biotechnology
T3 sequence (Q92831 whole entry): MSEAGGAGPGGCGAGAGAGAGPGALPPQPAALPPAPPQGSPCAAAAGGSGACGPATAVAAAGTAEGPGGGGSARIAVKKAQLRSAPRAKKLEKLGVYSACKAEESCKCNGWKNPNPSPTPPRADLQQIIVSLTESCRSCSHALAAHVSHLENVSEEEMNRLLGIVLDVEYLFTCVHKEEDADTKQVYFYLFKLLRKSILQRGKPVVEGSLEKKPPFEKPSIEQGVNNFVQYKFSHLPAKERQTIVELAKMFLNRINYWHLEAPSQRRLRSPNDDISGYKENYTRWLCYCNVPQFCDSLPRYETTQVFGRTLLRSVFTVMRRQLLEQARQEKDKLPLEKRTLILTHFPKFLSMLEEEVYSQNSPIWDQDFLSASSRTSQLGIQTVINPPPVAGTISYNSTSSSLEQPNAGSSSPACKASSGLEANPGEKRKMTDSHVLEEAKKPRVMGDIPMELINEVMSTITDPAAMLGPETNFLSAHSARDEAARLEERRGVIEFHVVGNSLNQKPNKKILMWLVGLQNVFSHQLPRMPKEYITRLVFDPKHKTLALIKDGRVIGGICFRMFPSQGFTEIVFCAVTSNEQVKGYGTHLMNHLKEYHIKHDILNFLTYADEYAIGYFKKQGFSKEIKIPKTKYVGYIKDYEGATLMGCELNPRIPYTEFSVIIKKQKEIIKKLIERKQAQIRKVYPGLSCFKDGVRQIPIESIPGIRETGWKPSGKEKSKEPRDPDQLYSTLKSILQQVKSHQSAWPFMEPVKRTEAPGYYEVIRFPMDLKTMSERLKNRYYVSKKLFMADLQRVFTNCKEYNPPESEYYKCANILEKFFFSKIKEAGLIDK
The series can be described thus: Radiometric enzyme activity assay, P/CAF (H3 peptide). Format: biochemical. As to conditions: 5 μg/ml NR-818, 10 μM ATP. As to the method: as §1

Series [4] deals with T4, CDK2/cyclinA (Homo sapiens, UniProt P24941).
T4 construct: purchased Upstate Biotechnology
Briefly: Radiometric kinase activity assay. The class given is biochemical. As to conditions: 5 μg/ml NR-818, 10 μM ATP. As to the method: as §1

In series [5] the target is T5, CDK2/cyclinE (Homo sapiens, UniProt P24941).
T5 construct: purchased Upstate Biotechnology
The series can be described thus: Radiometric kinase activity assay. Format: biochemical. Particulars: 5 μg/ml NR-818, 10 μM ATP. As to the method:
as §1

The target in series [6] is T6, CDK3/cyclinE (Homo sapiens, UniProt Q00526).
T6 construct: purchased Upstate Biotechnology
Briefly: Radiometric kinase activity assay. Format: biochemical. As to conditions: 5 μg/ml NR-818, 10 μM ATP. As to the method: as §1

Series [7] has as its target T7, CDK5/p35 (Homo sapiens, UniProt Q00535).
T7 construct: purchased Upstate Biotechnology
Briefly: Radiometric kinase activity assay. As to conditions: 5 μg/ml NR-818, 10 μM ATP. The class given is biochemical. As to the method:
as §1

In series [8] the target is T8, CDK9/cyclinT1 (Homo sapiens, UniProt P50750).
T8 construct: purchased Upstate Biotechnology
Briefly: Radiometric kinase activity assay. The class given is biochemical. Particulars: 5 μg/ml NR-818, 10 μM ATP. As for the experimental part: as §1

Series [9] addresses T9, JNK1α1 (Homo sapiens, UniProt P45983).
T9 construct: purchased Upstate Biotechnology
Briefly: Radiometric kinase activity assay. The class given is biochemical. Particulars: 5 μg/ml NR-818, 10 μM ATP. As for the experimental part:
as §1

The target in series [10] is T10, PKCζ (Homo sapiens, UniProt Q05513).
T10 construct: purchased Upstate Biotechnology
T10 sequence (Q05513 whole entry): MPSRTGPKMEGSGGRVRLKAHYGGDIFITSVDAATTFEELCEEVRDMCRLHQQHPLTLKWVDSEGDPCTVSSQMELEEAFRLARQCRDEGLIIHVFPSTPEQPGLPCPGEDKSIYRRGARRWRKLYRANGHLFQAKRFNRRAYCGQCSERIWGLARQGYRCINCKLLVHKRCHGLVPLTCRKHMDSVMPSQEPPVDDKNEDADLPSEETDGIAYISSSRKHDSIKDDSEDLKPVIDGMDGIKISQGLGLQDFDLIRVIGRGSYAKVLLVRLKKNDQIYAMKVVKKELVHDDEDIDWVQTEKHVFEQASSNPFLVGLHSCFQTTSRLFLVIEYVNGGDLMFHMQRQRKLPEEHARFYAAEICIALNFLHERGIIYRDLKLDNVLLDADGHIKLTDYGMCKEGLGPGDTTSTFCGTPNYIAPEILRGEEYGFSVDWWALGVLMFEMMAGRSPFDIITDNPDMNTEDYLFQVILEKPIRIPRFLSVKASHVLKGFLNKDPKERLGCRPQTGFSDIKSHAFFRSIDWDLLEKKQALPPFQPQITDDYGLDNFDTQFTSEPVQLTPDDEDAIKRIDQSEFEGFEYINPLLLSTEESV
Briefly: Radiometric kinase activity assay. As to conditions: 5 μg/ml NR-818, 10 μM ATP. Format: biochemical. As to the method:
as §1

Series [11] relates to M17-TAU P301L cells. The series can be described thus: TAU cytotoxicity (LDH leakage) in retinoic acid incubated M17-TAU P301L cells. The class given is cell-based, human. Particulars: Homo sapiens, 168 h, reduction of LDH activity of retinoic acid incubated M17-TAU P301L cells, 7 days; read-out: IC50. From the text:
An TAU expression plasmid was constructed by sub-cloning the cDNA of human TAU-P301L (encoding for TAU with proline 301 substituted by a leucine residue) into mammalian expression vector pcDNA3.1 resulting in plasmid pcDNA3.1-TAU P301L. Plasmids pcDNA3.1 and pcDNA3.1-TAU P301L were transfected to human neuroblastoma cells ([…]; ATCC No. CRL-2267) and independent clonal lines with the plasmids stably integrated into the genome were selected. […] Expression of the TAU P301L genes in the cell lines was confirmed by Western analysis.
In degenerated or dead cells, lactate dehydrogenase (LDH) is leaked out of the cells into the extracellular environment due to a loss of plasma-membrane integrity. This principle was used to determine cytotoxicity by quantifying the level of leaked LDH into the growth medium.
The detailed method for determining TAU cytotoxicity was as follows: From appropriate precultures of M17-3.1 and M17-TAU(P301L) cells were seeded at 2500 cells/cm2 in Optimem Reduced Serum without phenol red (Gibco, Cat. 31985-047) supplemented with 1% fetal calf serum, 1 mM sodium pyruvate, 1× non-essential amino acids, 500 μg/ml G418 0.5× antibiotic/antimycotic. After 3 hours of incubation at 37° C./5% CO2 1 volume of Optimem Reduced Serum (same as described above; except without fetal calf serum) supplemented with 2.5 μM retinoic acid (RA) was added. The cells were further incubated for 7 days. Subsequently, LDH activity was determined using Promega Cytotox 96 Non-Radioactive cytotoxicity assay, (Cat. G1780) according the supplier's instructions.
The M17-TAU P301L cell line made it possible to assess the ability of the compounds of this invention to counteract TAU cytotoxicity. […] Potency of the relevant compounds was determined by testing them at different concentrations ranging from non-effective (thus at a relatively low concentration) to an effective concentration for their ability to reduce LDH activity of retinoic acid incubated M17-TAU P301L cells.

Series [12] has as its system Peripheral blood mononuclear cells (PBMCs). Briefly: PBMC survival (viable cell count, trypan blue exclusion). Format: cell-based, human. As for the experimental part:
Peripheral blood mononuclear cells (PBMCs) from healthy donors were isolated by density centrifugation (Lymphoprep; Nycomed Pharma, AS Diagnostics, Oslo, Norway). For the “non-stimulated” conditions (NS) the cells were cultivated at a density of 1,750,000 cells per ml in RPMI-1640 supplemented with 2 mM L-glutamine, 15% FCS and 0.1% NaHCO3 for 3 days. […] At day 0 of the experiment, the NS and activated cells (PHA-stimulated blasts) were washed with PBS and were pelleted by centrifugation. […] The number of viable cells was counted based on the trypan blue exclusion method. The evolution of the number of cells was followed over a period of approximately 2 weeks.

Series [13] is described as follows: Diabetic mouse glucose tolerance test. As to conditions: subcutaneously, 30 mg/kg. Format: in vivo, mice. From the text: NR818 is formulated and tested in the diabetic mouse glucose tolerance test as described in example 269 of U.S. Pat. No. 6,489,344.

Converted amounts (≈) assume the structure as drawn.

The source of these data is patent US20120283303A1, “USE OF N-AMINOIMIDAZOLE CYTOPROTECTIVE COMPOUNDS FOR TREATING CELL DEATH AND/OR GSK-3 MEDIATED DISEASES” (K.U.LEUVEN RESEARCH AND DEVELOPMENT, priority 2006, published 2012).

T7 sequence (Q00535 whole entry): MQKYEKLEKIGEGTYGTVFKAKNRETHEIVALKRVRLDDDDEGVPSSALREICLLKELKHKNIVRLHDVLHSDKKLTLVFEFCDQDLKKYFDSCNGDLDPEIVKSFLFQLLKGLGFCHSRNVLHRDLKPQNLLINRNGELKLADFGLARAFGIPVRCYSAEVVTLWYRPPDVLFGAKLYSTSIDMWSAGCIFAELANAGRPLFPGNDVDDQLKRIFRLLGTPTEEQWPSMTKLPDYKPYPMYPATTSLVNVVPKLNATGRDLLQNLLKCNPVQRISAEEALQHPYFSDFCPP
T7 sequence (Q15078 2-307 partner limits assumed): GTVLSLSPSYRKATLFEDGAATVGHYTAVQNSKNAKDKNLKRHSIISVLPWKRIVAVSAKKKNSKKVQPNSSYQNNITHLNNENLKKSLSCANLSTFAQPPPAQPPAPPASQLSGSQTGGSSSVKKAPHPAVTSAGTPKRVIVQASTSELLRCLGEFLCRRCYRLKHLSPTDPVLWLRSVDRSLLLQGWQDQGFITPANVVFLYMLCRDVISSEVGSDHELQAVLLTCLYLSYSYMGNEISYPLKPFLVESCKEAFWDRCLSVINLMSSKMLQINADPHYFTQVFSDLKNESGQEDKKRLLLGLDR
T9 sequence (P45983 1-384 isoform P45983-2): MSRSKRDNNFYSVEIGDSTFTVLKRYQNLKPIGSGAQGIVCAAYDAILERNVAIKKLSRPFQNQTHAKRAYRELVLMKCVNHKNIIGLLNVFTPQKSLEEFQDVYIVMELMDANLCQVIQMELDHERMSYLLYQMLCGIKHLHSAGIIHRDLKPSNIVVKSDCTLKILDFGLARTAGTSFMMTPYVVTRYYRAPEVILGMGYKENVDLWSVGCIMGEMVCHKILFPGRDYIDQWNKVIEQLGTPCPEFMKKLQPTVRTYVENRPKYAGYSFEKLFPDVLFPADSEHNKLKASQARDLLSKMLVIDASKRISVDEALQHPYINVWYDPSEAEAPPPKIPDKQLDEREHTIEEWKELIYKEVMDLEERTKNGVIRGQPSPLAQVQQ
T2 sequence (Q09472 whole entry): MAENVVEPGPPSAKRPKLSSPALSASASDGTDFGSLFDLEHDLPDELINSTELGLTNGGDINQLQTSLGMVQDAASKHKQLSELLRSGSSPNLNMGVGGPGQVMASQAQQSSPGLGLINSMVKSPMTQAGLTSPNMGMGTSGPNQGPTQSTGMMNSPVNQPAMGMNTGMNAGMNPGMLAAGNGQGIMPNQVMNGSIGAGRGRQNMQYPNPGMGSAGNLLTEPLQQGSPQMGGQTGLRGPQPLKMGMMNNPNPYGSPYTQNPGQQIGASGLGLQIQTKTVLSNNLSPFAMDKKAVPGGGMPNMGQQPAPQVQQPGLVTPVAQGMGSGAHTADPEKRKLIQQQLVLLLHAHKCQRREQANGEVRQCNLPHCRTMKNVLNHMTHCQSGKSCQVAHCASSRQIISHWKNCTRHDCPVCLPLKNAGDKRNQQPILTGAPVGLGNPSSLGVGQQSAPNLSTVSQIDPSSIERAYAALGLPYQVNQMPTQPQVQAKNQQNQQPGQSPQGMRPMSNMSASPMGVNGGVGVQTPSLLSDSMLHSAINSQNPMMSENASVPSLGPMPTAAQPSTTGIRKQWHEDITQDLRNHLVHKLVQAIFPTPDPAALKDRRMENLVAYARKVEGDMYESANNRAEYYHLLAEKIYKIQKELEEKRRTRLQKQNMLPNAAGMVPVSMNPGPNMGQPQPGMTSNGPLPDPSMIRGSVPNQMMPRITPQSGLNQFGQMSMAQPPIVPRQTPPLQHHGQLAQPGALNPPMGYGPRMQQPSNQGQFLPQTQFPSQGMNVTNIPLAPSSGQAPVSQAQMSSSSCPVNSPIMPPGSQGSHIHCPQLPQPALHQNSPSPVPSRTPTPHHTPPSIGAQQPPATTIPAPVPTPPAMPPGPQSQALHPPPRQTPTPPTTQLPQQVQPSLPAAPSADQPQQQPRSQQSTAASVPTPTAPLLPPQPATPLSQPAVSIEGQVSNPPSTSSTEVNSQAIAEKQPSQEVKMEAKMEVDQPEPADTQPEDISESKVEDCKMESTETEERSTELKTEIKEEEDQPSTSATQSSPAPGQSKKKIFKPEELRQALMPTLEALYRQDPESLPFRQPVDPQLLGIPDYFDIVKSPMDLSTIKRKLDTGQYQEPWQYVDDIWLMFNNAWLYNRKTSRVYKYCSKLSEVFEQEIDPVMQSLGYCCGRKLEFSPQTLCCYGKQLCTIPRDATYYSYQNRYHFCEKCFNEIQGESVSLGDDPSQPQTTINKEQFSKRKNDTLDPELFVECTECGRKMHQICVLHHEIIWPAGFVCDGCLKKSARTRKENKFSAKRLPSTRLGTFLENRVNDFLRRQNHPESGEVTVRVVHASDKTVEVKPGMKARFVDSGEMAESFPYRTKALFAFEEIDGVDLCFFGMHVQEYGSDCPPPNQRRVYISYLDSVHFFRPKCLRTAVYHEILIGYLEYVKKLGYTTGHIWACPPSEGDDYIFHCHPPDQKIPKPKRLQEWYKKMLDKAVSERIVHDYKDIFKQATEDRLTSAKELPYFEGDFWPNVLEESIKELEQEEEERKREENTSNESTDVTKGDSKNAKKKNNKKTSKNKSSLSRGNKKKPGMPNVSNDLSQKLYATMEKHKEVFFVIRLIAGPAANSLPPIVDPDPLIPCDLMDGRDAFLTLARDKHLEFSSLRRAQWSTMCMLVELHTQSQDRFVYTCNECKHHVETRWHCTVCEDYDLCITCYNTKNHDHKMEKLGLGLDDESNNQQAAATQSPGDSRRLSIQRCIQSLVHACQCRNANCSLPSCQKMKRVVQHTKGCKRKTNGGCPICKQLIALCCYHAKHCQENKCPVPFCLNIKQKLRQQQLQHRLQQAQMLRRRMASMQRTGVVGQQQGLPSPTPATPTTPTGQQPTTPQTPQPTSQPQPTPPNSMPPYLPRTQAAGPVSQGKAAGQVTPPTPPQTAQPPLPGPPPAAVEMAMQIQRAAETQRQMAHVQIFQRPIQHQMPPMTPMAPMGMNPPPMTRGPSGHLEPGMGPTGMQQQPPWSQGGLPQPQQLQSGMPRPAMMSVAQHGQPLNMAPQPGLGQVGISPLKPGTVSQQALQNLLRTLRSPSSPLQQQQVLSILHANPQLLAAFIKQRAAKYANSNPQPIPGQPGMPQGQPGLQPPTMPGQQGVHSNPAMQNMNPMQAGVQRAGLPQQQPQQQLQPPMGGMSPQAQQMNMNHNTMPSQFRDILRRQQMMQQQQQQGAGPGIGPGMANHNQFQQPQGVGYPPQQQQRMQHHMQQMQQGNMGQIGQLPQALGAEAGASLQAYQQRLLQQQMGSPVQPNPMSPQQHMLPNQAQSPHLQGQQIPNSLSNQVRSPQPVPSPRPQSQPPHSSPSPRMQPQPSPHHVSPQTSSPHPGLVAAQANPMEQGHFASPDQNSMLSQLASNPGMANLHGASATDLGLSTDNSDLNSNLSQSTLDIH
T1 sequence (Q09472 whole entry): as above

For `Cc1nc(S)n(Nc2cccc3ccccc23)c1-c1ccccc1` [HER/NR818, 4-Methyl-1-(naphthalen-1-ylamino)-5-phenyl-1,3-dihydro-imidazole-2-thione], the “Activity (% of control)” value in series [1] is on record as 88 % of control; in [2], 100 % of control; in series [3], 99 % of control; in series [4], 87 % of control; in series [5], 101 % of control; in series [6], 103 % of control. Also, the “Activity (% of control)” value in series [7] was 92 % of control; in series [8], 100 % of control; in series [9] it was 114 % of control; in series [10], 98 % of control. Moreover, in series [11], the IC50 stood at 0.013 µg/mL (≈ 0.0392 µM). In [12] (IL-2 10 U/ml plus NAIM (NR818 2.5 μg/ml), stimulated and non stimulated cells, versus IL-2 only), the “PBMC cell count, NAIM combined with IL-2” value was “enhanced”. For the same compound, in [12] (NAIM alone, compared to control conditions), the “PBMC cell viability, NAIM as such” value is listed as “did not affect the cell viability”. The “basal hyperglycemia just prior to the glucose tolerance test” value in series [13] (diabetic mice) is on record as “significant reduction”. For the same compound, in series [13] (diabetic mice), the “glucose disposal following glucose challenge” value is listed as “significantly improved”. Besides, the “tissue penetrance in vivo” value in [13] (mice) was “high”.

Usually IC50 stands for the concentration that gives 50% inhibition.
